Block time, Kon and Koff data for seven compounds are collected here from ChEMBL document CHEMBL1126173, “Molecular recognition of amiloride analogs: a molecular electrostatic potential analysis. 1. Pyrazine ring modifications” (J Med Chem, 1992).

What all share (details): rana ridibundus
The nature of data set [1]: Blocking time for inhibition of epithelial sodium channels- NA+/H+ antiporter, Na+/ca+2 exchanger, Na+/ca+2 channels, K+ channel, nicotinic acetylcholine receptor and Na+/K+ ATPase.
The nature of data set [2]: Inhibitory activity against epithelial sodium channels- NA+/H+ antiporter, Na+/ca+2 exchanger, Na+/ca+2 channels, K+ channel, nicotinic acetylcholine receptor and Na+/K+ ATPase.
The nature of data set [3]: Inhibitory activity against epithelial sodium channels- NA+/H+ antiporter, Na+/ca+2 exchanger, Na+/ca+2 channels, K+ channel, nicotinic acetylcholine receptor and Na+/K+ ATPase (microscopic dissociation constant). Type of data set: ADME.
A short description of data set [4]: Inhibitory activity against epithelial sodium channels- NA+/H+ antiporter, Na+/ca+2 exchanger, Na+/ca+2 channels, K+ channel, nicotinic acetylcholine receptor and Na+/K+ ATPase(microscopic dissociation constant).

`Nc1nc(N)c(C(=O)NC(N)N)nc1I` gave a Block time in data set [1] of 57 ms. Also, in data set [2], the Kon was found to be 1.143e+07 M⁻¹ s⁻¹. The Koff in data set [3] turned out to be 17.41 s⁻¹.
The compound `Nc1nc(N)c(C(=O)NC(N)N)nc1F` displayed a Block time in data set [1] of 31 ms. This compound also had a Kon in data set [2] of 1.354e+07 M⁻¹ s⁻¹. Also, the Koff in data set [3] was 32.2 s⁻¹.
Consider `Nc1cnc(C(=O)NC(N)N)c(N)n1`, for which, in data set [1], the Block time is 6 ms. The same compound came in with a Kon in data set [2] of 1.447e+07 M⁻¹ s⁻¹. The same compound displayed a Koff in data set [3] of 176.25 s⁻¹.
In the case of `Nc1nc(Cl)c(Cl)nc1C(=O)NC(N)N`, in data set [1], the Block time is listed as 7 ms. This compound also had a Kon in data set [2] of 5.16e+06 M⁻¹ s⁻¹. This compound also came in with a Koff in data set [3] of 151.1 s⁻¹.
The corresponding values for `Nc1ncc(Cl)nc1C(=O)NC(N)N` are 92 ms, 3.32e+06 M⁻¹ s⁻¹ and 10.89 s⁻¹.
The compound `Nc1nc(N)c(C(=O)NC(N)N)nc1Br` had a Koff in data set [4] of 5.58 s⁻¹. The compound also showed a Block time in data set [1] of 179 ms. In addition, the Kon in data set [2] was 1.419e+07 M⁻¹ s⁻¹.
In data set [1], `Nc1nc(N)c(C(=O)NC(N)N)nc1Cl` registered a Block time of 255 ms. The compound further yielded a Kon in data set [2] of 1.317e+07 M⁻¹ s⁻¹. In data set [3], this compound came in with a Koff of 3.93 s⁻¹.
